Species on record: Rattus norvegicus
Test: DrugMatrix - Regimen: Daily Repeat
Assay type: toxicity, organism-based, Sprague-Dawley
Set-up: regimen Daily Repeat, gender Male, age 6-8 weeks
Details: in vivo, po, route oral GAVAGE, […]; for ABSOLUTE BASOPHIL / ABSOLUTE EOSINOPHIL / ABSOLUTE LYMPHOCYTE / ABSOLUTE MONOCYTE / ABSOLUTE SEGMENTED NEUTROPHIL / BASOPHIL / EOSINOPHIL / ERYTHROCYTE COUNT / HEMATOCRIT / HEMOGLOBIN / LEUKOCYTE COUNT / LYMPHOCYTE / MEAN CORPUSCULAR HEMOGLOBIN / MEAN CORPUSCULAR HEMOGLOBIN CONCENTRATION / MEAN CORPUSCULAR VOLUME / MONOCYTE / NEUTROPHIL / NUCLEATED RED BLOOD CELLS / PLATELET COUNT: tissue Blood; for ALANINE AMINOTRANSFERASE / ALBUMIN / ALKALINE PHOSPHATASE / ASPARTATE AMINOTRANSFERASE / BLOOD UREA NITROGEN / CARBON DIOXIDE / CHLORIDE / CHOLESTEROL / CREATINE PHOSPHOKINASE / CREATININE / GLUCOSE / LACTATE DEHYDROGENASE / LIPASE / PHOSPHORUS / POTASSIUM / SODIUM / TOTAL BILIRUBIN / TOTAL PROTEIN / URIC ACID: tissue Plasma
[1] = 0 mg/kg, 72 h, dose level Control, time 3 day
[2] = 0 mg/kg, 120 h, dose level Control, time 5 day
[3] = 30 mg/kg, 72 h, dose level Low, time 3 day

Cc1oncc1C(=O)Nc1ccc(C(F)(F)F)cc1 [LEFLUNOMIDE]
ABSOLUTE BASOPHIL [1]: 0 CELLS/uL
ABSOLUTE EOSINOPHIL [1]: 52.33 CELLS/uL
ABSOLUTE LYMPHOCYTE [1]: 9105.33 CELLS/uL
ABSOLUTE MONOCYTE [1]: 155.67 CELLS/uL
ABSOLUTE SEGMENTED NEUTROPHIL [1]: 1020 CELLS/uL
BASOPHIL [1]: 0%
EOSINOPHIL [1]: 0.33%
ERYTHROCYTE COUNT [1]: 5.03 x10E6/uL
HEMATOCRIT [1]: 31.63%
HEMOGLOBIN [1]: 12.37 G/DL
LEUKOCYTE COUNT [1]: 10.33 x10E3/uL
LYMPHOCYTE [1]: 87%
MEAN CORPUSCULAR HEMOGLOBIN [1]: 24.57 pg
MEAN CORPUSCULAR HEMOGLOBIN CONCENTRATION [1]: 39.07 G/DL
MEAN CORPUSCULAR VOLUME [1]: 62.93 fL
MONOCYTE [1]: 1.33%
NEUTROPHIL [1]: 11.33%
NUCLEATED RED BLOOD CELLS [1]: 0 /100WBC
PLATELET COUNT [1]: 896 x10E3/uL
ALANINE AMINOTRANSFERASE [1]: 75.33 u/L
ALBUMIN [1]: 3.77 G/DL
ALKALINE PHOSPHATASE [1]: 378.67 u/L
ASPARTATE AMINOTRANSFERASE [1]: 101.33 u/L
BLOOD UREA NITROGEN [1]: 11.33 mg/dL
CARBON DIOXIDE [1]: 25 mmol/L
CHLORIDE [1]: 99 MEQ/L
CHOLESTEROL [1]: 66 mg/dL
CREATINE PHOSPHOKINASE [1]: 277 u/L
CREATININE [1]: 0.33 mg/dL
GLUCOSE [1]: 198.33 mg/dL
LACTATE DEHYDROGENASE [1]: 140.33 u/L
LIPASE [1]: 11.33 u/L
PHOSPHORUS [1]: 11.83 mg/dL
POTASSIUM [1]: 5.37 MEQ/L
SODIUM [1]: 141.03 MEQ/L
TOTAL BILIRUBIN [1]: 0.2 mg/dL
TOTAL PROTEIN [1]: 5.47 G/DL
URIC ACID [1]: 0.93 mg/dL
ABSOLUTE BASOPHIL [2]: 0 CELLS/uL
ABSOLUTE EOSINOPHIL [2]: 0 CELLS/uL
ABSOLUTE LYMPHOCYTE [2]: 8734 CELLS/uL
ABSOLUTE MONOCYTE [2]: 98.67 CELLS/uL
ABSOLUTE SEGMENTED NEUTROPHIL [2]: 1034 CELLS/uL
BASOPHIL [2]: 0%
EOSINOPHIL [2]: 0%
ERYTHROCYTE COUNT [2]: 5.19 x10E6/uL
HEMATOCRIT [2]: 33.2%
HEMOGLOBIN [2]: 12.93 G/DL
LEUKOCYTE COUNT [2]: 9.87 x10E3/uL
LYMPHOCYTE [2]: 87%
MEAN CORPUSCULAR HEMOGLOBIN [2]: 25 pg
MEAN CORPUSCULAR HEMOGLOBIN CONCENTRATION [2]: 39.03 G/DL
MEAN CORPUSCULAR VOLUME [2]: 63.93 fL
MONOCYTE [2]: 1%
NEUTROPHIL [2]: 12%
NUCLEATED RED BLOOD CELLS [2]: 0 /100WBC
PLATELET COUNT [2]: 1190 x10E3/uL
ALANINE AMINOTRANSFERASE [2]: 75.67 u/L
ALBUMIN [2]: 4 G/DL
ALKALINE PHOSPHATASE [2]: 384.33 u/L
ASPARTATE AMINOTRANSFERASE [2]: 89.67 u/L
BLOOD UREA NITROGEN [2]: 13 mg/dL
CARBON DIOXIDE [2]: 32.67 mmol/L
CHLORIDE [2]: 103 MEQ/L
CHOLESTEROL [2]: 79.67 mg/dL
CREATINE PHOSPHOKINASE [2]: 199.33 u/L
CREATININE [2]: 0.29 mg/dL
GLUCOSE [2]: 161.33 mg/dL
LACTATE DEHYDROGENASE [2]: 92.33 u/L
LIPASE [2]: 11.67 u/L
PHOSPHORUS [2]: 10.8 mg/dL
POTASSIUM [2]: 5.38 MEQ/L
SODIUM [2]: 145.3 MEQ/L
TOTAL BILIRUBIN [2]: 0.17 mg/dL
TOTAL PROTEIN [2]: 5.7 G/DL
URIC ACID [2]: 0.63 mg/dL
ABSOLUTE BASOPHIL [3]: 0 CELLS/uL
ABSOLUTE EOSINOPHIL [3]: 0 CELLS/uL
ABSOLUTE LYMPHOCYTE [3]: 5968 CELLS/uL
ABSOLUTE MONOCYTE [3]: 69 CELLS/uL
ABSOLUTE SEGMENTED NEUTROPHIL [3]: 863 CELLS/uL
BASOPHIL [3]: 0%
EOSINOPHIL [3]: 0%
ERYTHROCYTE COUNT [3]: 5.11 x10E6/uL
HEMATOCRIT [3]: 32.33%
HEMOGLOBIN [3]: 12.8 G/DL
LEUKOCYTE COUNT [3]: 6.9 x10E3/uL
LYMPHOCYTE [3]: 87%
MEAN CORPUSCULAR HEMOGLOBIN [3]: 25.03 pg
MEAN CORPUSCULAR HEMOGLOBIN CONCENTRATION [3]: 39.63 G/DL
MEAN CORPUSCULAR VOLUME [3]: 63.2 fL
MONOCYTE [3]: 1%
NEUTROPHIL [3]: 12%
NUCLEATED RED BLOOD CELLS [3]: 0 /100WBC
PLATELET COUNT [3]: 794.67 x10E3/uL
ALANINE AMINOTRANSFERASE [3]: 46.33 u/L
ALBUMIN [3]: 3.67 G/DL
ALKALINE PHOSPHATASE [3]: 251.33 u/L
ASPARTATE AMINOTRANSFERASE [3]: 75.67 u/L
BLOOD UREA NITROGEN [3]: 8 mg/dL
CARBON DIOXIDE [3]: 29.67 mmol/L
CHLORIDE [3]: 101.33 MEQ/L
CHOLESTEROL [3]: 98.67 mg/dL
CREATINE PHOSPHOKINASE [3]: 199.67 u/L
CREATININE [3]: 0.1 mg/dL
GLUCOSE [3]: 181.33 mg/dL
LACTATE DEHYDROGENASE [3]: 70 u/L
LIPASE [3]: 10.67 u/L
PHOSPHORUS [3]: 9.87 mg/dL
POTASSIUM [3]: 4.69 MEQ/L
SODIUM [3]: 144.17 MEQ/L
TOTAL BILIRUBIN [3]: 0.13 mg/dL
TOTAL PROTEIN [3]: 5.17 G/DL
URIC ACID [3]: 0.53 mg/dL
